As usually defined, the IC50 is the point on the concentration scale where inhibition reaches its midpoint.

Type in all cases: biochemical
One experiment has as its target T1, JAK3 (Homo sapiens, UniProt P52333).
T1 construct: purchased Invitrogen Corporation, Carlsbad, Calif; PV4080
T1 sequence (P52333 1-1124): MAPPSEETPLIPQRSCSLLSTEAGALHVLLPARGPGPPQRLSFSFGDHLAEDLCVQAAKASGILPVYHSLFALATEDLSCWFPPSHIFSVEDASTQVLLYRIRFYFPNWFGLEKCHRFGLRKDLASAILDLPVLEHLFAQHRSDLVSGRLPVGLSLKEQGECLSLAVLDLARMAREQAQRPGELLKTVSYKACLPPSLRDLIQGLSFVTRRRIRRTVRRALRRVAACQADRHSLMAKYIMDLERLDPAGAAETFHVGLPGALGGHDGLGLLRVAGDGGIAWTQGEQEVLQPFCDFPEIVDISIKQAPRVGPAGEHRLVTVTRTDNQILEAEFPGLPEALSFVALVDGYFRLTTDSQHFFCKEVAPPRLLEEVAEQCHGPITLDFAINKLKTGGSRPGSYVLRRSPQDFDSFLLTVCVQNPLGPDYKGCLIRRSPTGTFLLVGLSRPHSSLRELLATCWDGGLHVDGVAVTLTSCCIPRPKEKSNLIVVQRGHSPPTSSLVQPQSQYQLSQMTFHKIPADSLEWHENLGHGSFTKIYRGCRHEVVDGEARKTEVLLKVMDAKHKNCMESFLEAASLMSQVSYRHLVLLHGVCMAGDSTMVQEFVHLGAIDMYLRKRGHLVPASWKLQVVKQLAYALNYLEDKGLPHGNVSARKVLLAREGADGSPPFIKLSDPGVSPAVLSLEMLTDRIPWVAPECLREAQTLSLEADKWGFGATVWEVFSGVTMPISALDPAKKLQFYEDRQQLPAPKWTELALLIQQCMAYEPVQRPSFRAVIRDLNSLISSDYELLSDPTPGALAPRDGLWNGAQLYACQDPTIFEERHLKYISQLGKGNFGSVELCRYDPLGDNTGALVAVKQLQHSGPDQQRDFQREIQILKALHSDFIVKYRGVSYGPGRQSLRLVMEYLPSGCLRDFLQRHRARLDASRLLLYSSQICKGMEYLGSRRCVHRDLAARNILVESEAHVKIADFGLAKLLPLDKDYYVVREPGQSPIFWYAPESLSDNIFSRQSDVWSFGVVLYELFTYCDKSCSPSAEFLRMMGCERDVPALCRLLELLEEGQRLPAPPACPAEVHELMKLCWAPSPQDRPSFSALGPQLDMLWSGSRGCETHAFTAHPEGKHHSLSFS
As to the kind of experiment: JAK3 Inhibition Assay (Omnia kinase fluorescence peptide substrate assay). The settings on record: averaged IC50 ranges; assay of Example D; 10 μM (Km app) or 1 mM ATP, 2.5 nM JAK3. From the text:
(§1) The assays described in Examples A, B, C and D for the determination of Tyk2, JAK1, JAK2 and JAK3 kinase activity, respectively, utilized the Omnia® Kinase fluorescence peptide substrate-based technology (Invitrogen). The specific components of the assay mixture are described in Examples A, B, C and D. In these assays, Mg^2+ is chelated upon phosphorylation of the Omnia peptide by the kinase to form a bridge between the chelation-enhanced fluorophore Sox and the phosphate, resulting in an increase in fluorescence emission at 485 nm when excited at […]. The reactions were therefore read at excitation 360 nm and emission was measured at 485 nm every 50 seconds for 45 minutes using a PerkinElmer EnVision Multilabel Plate Reader.
(§2) The final buffer conditions for Tyk2, JAK1, JAK2, and JAK3 assays were as follows: 25 mM HEPES, pH 7.4, 10 mM MgCl2, 0.01% Triton X-100 and 1 mM DTT.
(§3) Compounds were prepared at 50× the final concentration in DMSO by conducting 3-fold serial dilutions from a 500-μM intermediate dilution to give a 10-point dosing curve having a high dose of 10 μM. Two-μL aliquots of these were transferred to a fresh plate for a ten-fold intermediate dilution with assay buffer. Five-μL aliquots of the diluted compounds were then transferred to 20-μL of assay mixtures described in Examples A, B, C and D for a final concentration of DMSO of 2%. A standard or reference compound was typically included on each assay plate to validate that plate. For each plate, percent of control (POC) values were calculated for each well according to the following equation:
(§4) where Xmax=Average Uninhibited Controls • Xmin=Average Background IC50's were estimated from the POC's using a standard 4-parameter logistic model:
(§5) where • A=Minimum Y (Bottom Asymptote) • B=Maximum Y (Top Asymptote) • C=EC50 • D=Slope Factor • X=Compound Concentration (nM) • Y=POC
(§6) The IC50 is defined as the concentration of inhibitor at which the POC equals 50 for the fitted curve.
Compounds of Formula I were screened for their ability to inhibit JAK3 using the general enzyme inhibition assay method, in which the assay mixture contained 10 μM (Km app) or 1 mM ATP, 10 μM Omnia® Y7 peptide (Catalog #IVGN KNZ3071C, Invitrogen Corporation, Carlsbad, Calif.) and 2.5 nM JAK3 in a total volume of 20 μL. JAK3 was purchased from Invitrogen Corporation, Carlsbad, Calif. (catalog #IVGN PV4080).

The next experiment has as its target T2, Human Tyk2 kinase domain (Homo sapiens, UniProt P29597).
T2 construct: comprising amino acids 886 to 1187 with 10 additional histidine residues; 10xHis (histidine tag) (C, cleaved yes); made in house
T2 sequence (P29597 886-1187): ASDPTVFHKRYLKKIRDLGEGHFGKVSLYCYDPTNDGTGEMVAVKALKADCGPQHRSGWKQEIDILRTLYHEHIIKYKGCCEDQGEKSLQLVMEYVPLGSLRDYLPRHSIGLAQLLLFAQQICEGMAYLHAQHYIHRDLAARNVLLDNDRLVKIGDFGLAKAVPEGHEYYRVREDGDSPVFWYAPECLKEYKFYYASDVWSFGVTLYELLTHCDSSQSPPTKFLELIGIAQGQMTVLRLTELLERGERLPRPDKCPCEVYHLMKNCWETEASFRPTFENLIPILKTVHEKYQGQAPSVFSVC
As to the kind of experiment: Tyk2 Inhibition Assay (Omnia kinase fluorescence peptide substrate assay). The following applies: averaged IC50 ranges; assay of Example A; 10 μM (Km app) or 1 mM ATP, 2 nM Tyk2.
Excerpt: as §1, §2, §3, §4, §5, §6
Compounds of Formula I were screened for their ability to inhibit Tyk2 using the general enzyme inhibition assay method, in which the assay mixture contained 10 μM (Km app) or 1 mM ATP, 8 μM Omnia® Y12 peptide (Catalog #IVGN KPZ3121C; Invitrogen Corporation, Carlsbad, Calif.) and 2 nM Tyk2 in a total volume of 20 μL. Human Tyk2 kinase domain, comprising amino acids 886 to 1187 with 10 additional histidine residues (histidine tag) on the carboxy terminus, was expressed and purified from bacculovirus in-house at Array BioPharma Inc. (Boulder, Colo.). The histidine tag was cleaved after purification using standard conditions.

The target of the next experiment is T3, JAK1 (Homo sapiens, UniProt P23458).
T3 construct: purchased Invitrogen Corporation, Carlsbad, Calif; PV4775
The experiment is described as follows: JAK1 Inhibition Assay (Omnia kinase fluorescence peptide substrate assay). The following applies: averaged IC50 ranges; assay of Example B; 40 μM (Km app) or 1 mM ATP, 15 nM JAK1.
Excerpt: as §1, §2, §3, §4, §5, §6
Compounds of Formula I were screened for their ability to inhibit JAK1 using the general enzyme inhibition assay method, in which the assay mixture contained 40 μM (Km app) or 1 mM ATP, 8 μM Omnia® Y12 peptide (Catalog #IVGN KPZ3121C; Invitrogen Corporation, Carlsbad, Calif.) and 15 nM JAK1 in a total volume of 20 μL. JAK1 was purchased from Invitrogen Corporation, Carlsbad, Calif. (catalog #IVGN PV4775).

The target in a further experiment is T4, JAK2 (Homo sapiens, UniProt O60674).
T4 construct: purchased Invitrogen Corporation, Carlsbad, Calif; PV4288
As to the kind of experiment: JAK2 Inhibition Assay (Omnia kinase fluorescence peptide substrate assay). The settings on record: averaged IC50 ranges; assay of Example C; 25 μM (Km app) or 1 mM ATP, 5 nM JAK2.
Excerpt: as §1, §2, §3, §4, §5, §6
Compounds of Formula I were screened for their ability to inhibit JAK2 using the general enzyme inhibition assay method, in which the assay mixture contained 25 μM (Km app) or 1 mM ATP, 10 μM Omnia® Y7 peptide (Catalog #IVGN KNZ3071C, Invitrogen Corporation, Carlsbad, Calif.) and 5 nM JAK2 in a total volume of 20 μL. JAK2 was purchased from Invitrogen Corporation, Carlsbad, Calif. (catalog #IVGN PV4288).

T3 sequence (P23458 whole entry): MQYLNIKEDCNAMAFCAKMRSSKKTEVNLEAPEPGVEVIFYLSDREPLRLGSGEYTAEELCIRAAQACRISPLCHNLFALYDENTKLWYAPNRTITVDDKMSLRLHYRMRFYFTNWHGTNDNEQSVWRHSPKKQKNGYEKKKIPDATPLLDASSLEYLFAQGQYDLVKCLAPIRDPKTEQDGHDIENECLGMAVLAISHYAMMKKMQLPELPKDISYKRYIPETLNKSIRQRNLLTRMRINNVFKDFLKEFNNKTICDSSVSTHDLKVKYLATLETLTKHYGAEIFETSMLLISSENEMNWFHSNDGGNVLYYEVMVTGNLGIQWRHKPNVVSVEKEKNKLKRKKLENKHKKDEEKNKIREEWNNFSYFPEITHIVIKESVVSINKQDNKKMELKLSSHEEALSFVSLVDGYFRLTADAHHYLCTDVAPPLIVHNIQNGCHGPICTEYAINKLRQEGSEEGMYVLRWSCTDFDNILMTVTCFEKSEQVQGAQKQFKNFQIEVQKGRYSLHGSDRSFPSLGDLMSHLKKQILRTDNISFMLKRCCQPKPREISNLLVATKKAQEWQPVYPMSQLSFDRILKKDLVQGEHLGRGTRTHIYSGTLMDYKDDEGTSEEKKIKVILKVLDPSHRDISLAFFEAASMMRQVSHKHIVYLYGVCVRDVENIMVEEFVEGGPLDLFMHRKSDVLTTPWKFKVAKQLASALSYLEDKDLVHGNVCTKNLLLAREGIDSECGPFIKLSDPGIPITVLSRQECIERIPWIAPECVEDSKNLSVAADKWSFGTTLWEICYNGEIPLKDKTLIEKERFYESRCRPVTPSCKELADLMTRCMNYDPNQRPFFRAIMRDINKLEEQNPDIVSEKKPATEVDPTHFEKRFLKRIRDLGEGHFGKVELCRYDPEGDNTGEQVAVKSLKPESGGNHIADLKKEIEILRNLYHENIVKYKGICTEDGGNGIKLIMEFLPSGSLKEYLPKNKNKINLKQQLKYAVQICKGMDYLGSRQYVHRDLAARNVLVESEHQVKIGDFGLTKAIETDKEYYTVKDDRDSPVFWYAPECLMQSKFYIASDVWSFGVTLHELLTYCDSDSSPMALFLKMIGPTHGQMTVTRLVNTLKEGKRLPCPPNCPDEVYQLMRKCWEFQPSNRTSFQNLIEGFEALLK
T4 sequence (O60674 whole entry): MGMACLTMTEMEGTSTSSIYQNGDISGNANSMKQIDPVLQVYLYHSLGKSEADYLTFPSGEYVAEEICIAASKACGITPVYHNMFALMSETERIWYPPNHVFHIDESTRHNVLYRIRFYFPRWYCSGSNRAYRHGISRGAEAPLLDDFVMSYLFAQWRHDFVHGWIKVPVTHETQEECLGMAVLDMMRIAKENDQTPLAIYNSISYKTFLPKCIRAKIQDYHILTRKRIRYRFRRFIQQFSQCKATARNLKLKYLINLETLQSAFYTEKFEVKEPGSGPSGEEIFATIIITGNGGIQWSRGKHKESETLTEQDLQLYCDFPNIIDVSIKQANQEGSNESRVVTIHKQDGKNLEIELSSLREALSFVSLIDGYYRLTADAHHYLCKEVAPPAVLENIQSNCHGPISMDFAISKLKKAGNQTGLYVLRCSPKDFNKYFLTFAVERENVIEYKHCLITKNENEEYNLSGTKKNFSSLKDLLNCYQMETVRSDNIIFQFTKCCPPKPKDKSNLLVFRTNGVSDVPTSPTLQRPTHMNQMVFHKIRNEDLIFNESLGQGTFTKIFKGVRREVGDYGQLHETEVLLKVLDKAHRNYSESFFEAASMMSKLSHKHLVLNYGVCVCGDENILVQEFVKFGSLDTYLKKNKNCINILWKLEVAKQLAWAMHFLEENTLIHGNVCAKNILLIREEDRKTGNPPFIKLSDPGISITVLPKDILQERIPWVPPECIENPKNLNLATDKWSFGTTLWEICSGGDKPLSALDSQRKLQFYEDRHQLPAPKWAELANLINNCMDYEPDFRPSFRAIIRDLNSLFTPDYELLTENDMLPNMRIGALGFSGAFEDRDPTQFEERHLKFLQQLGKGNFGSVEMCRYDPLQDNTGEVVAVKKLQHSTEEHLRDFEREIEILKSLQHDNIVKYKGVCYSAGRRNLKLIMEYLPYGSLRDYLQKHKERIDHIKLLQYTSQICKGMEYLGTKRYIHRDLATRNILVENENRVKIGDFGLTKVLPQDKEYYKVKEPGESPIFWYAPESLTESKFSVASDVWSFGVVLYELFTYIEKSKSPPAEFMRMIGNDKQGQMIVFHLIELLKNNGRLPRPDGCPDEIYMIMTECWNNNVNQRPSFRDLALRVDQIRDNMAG

`Cn1cc(-c2cc3nccn3c(-c3cnn(C(CC#N)C4CC4(F)F)c3)n2)cn1` (mixture of isomers) [Example 147, 3-(2,2-difluorocyclopropyl)-3-(4-(7-(1-methyl-1H-pyrazol-4-yl)imidazo[1,2-c]pyrimidin-5-yl)-1H-pyrazol-1-yl)propanenitrile]: the IC50 was 100 to 1000 nM on JAK3, < 10 nM on Human Tyk2 kinase domain, 10 to 100 nM at JAK1 and 10 to 100 nM at JAK2.

For the compound `CN1CCC(c2ccc(-c3cc4nccn4c(-c4cnn(C(CC#N)C5CCCC5)c4)n3)cc2)CC1` (single isomer, unassigned) [Example 111, 3-cyclopentyl-3-(4-(7-(4-(1-methylpiperidin-4-yl)phenyl)imidazo[1,2-c]pyrimidin-5-yl)-1H-pyrazol-1-yl)propanenitrile], the half-maximal inhibitory concentration (IC50) lay in the range of 100 to 1000 nM at JAK3, 10 to 100 nM against Human Tyk2 kinase domain, 100 to 1000 nM against JAK1 and 100 to 1000 nM against JAK2.

For the compound `CN1CCC(c2ccc(-c3cc4nccn4c(-c4cnn(C(CC#N)C5CCCC5)c4)n3)cc2)CC1` (single isomer, unassigned) [Example 112, 3-cyclopentyl-3-(4-(7-(4-(1-methylpiperidin-4-yl)phenyl)imidazo[1,2-c]pyrimidin-5-yl)-1H-pyrazol-1-yl)propanenitrile], the IC50 at JAK3 was 100 to 1000 nM; on Human Tyk2 kinase domain it was < 10 nM; against JAK1, 10 to 100 nM; against JAK2 it was 10 to 100 nM.

Regarding `N#CCC(C1CCCC1)n1cc(-c2nc(-c3ccc(N4CCOCC4)cc3)cc3nccn23)cn1` (single isomer, unassigned) [Example 114, 3-cyclopentyl-3-(4-(7-(4-morpholinophenyl)imidazo[1,2-c]pyrimidin-5-yl)-1H-pyrazol-1-yl)propanenitrile], the IC50 is 100 to 1000 nM on JAK3, < 10 nM against Human Tyk2 kinase domain, 100 to 1000 nM on JAK1 and 10 to 100 nM on JAK2.

Regarding `N#CCC(C1CCCC1)n1cc(-c2nc(-c3ccc(N4CCOCC4)cc3)cc3nccn23)cn1` (single isomer, unassigned) [Example 115, 3-cyclopentyl-3-(4-(7-(4-morpholinophenyl)imidazo[1,2-c]pyrimidin-5-yl)-1H-pyrazol-1-yl)propanenitrile], the IC50 is 100 to 1000 nM against JAK3, < 10 nM on Human Tyk2 kinase domain, < 10 nM at JAK1 and < 10 nM at JAK2.

Turning to `Cn1cc(-c2cc3nccn3c(-c3cnn(C(CC#N)C4CC4)c3)n2)cn1` (single isomer, unassigned; enantiomer 1) [Example 3, Enantiomer 1 of 3-cyclopropyl-3-(4-(7-(1-methyl-1H-pyrazol-4-yl)imidazo[1,2-c]pyrimidin-5-yl)-1H-pyrazol-1-yl)propanenitrile (Peak 1)], the IC50 at JAK3 lay in the range of 100 to 1000 nM; against Human Tyk2 kinase domain, 10 to 100 nM; against JAK1 it was 100 to 1000 nM; on JAK2, 100 to 1000 nM.

Consider `Cn1cc(-c2cc3nccn3c(-c3cnn(C(CC#N)C4CC4)c3)n2)cn1` (single isomer, unassigned; enantiomer 2) [Example 4, Enantiomer 2 of 3-cyclopropyl-3-(4-(7-(1-methyl-1H-pyrazol-4-yl)imidazo[1,2-c]pyrimidin-5-yl)-1H-pyrazol-1-yl)propanenitrile (Peak 2)], for which the IC50 was 100 to 1000 nM against JAK3, < 10 nM against Human Tyk2 kinase domain, 10 to 100 nM on JAK1 and 10 to 100 nM against JAK2.

For the compound `Cn1cc(-c2cc3nccn3c(-c3cnn(C(CC#N)CC#N)c3)n2)cn1` [Example 1, 3-(4-(7-(1-methyl-1H-pyrazol-4-yl)imidazo[1,2-c]pyrimidin-5-yl)-1H-pyrazol-1-yl)pentanedinitrile], the IC50 was 100 to 1000 nM against JAK3, < 10 nM against Human Tyk2 kinase domain, 10 to 100 nM against JAK1 and 10 to 100 nM against JAK2.

As for `Cn1cc(-c2cc3nccn3c(-c3cnn(C(CC#N)C4CC4)c3)n2)cn1` (stereo not shown) [Example 2, 3-Cyclopropyl-3-(4-(7-(1-methyl-1H-pyrazol-4-yl)imidazo[1,2-c]pyrimidin-5-yl)-1H-pyrazol-1-yl)propanenitrile], the IC50 at JAK3 was > 1000 nM; on Human Tyk2 kinase domain, < 10 nM; on JAK1, 100 to 1000 nM; at JAK2, 10 to 100 nM.

For the compound `Cn1cc(-c2cc3nccn3c(-c3cnn(C(CC#N)CC(C)(C)C)c3)n2)cn1` (stereo not shown) [Example 5], the IC50 is > 1000 nM against JAK3, 10 to 100 nM on Human Tyk2 kinase domain, 100 to 1000 nM against JAK1 and 100 to 1000 nM against JAK2.

The values are drawn from patent publication US8962596B2 (Array BioPharma Inc., priority 2010, dated 2015).
